Laboratory results as given in patent US20250129012A1, “ANTI-INFLAMMATORY AND ANALGESIC COMPOUNDS AND USE THEREOF” (JIANGSU ATOM BIOSCIENCE AND PHARMACEUTICAL CO., LTD., priority 2021, published 2025).
Read-outs that look alike come from different tables or passages of the source. Marks after values point to notes of the source that are not given here.

Columns and labels:
[1] = system: TNF-α; assay: Inflammatory factor experiment A: TNF-α in gouty arthritis rats; type: in vivo, SD rats; conditions: synovial tissue of knee joints; dose 0.6 mg/kg gavage; day 10
Procedure: (§1) Compounds 14, 17 and 26 were prepared by grinding with 0.5% CMC-Na before administration and into a suspension for gavage at the corresponding concentration (0.06 mg/mL), with a dosage volume of 10 mL/kg. Colchicine, purchased from Sun Chemical Technology (Shanghai) Co., Ltd. with batch no. 49ETRRAS, and was prepared by grinding with 0.5% CMC-Na before administration and into a suspension for gavage at the corresponding concentration (0.06 mg/mL), with a dosage volume of 10 mL/kg.
(§2) The compounds in each group were prepared into a suspension of the corresponding concentration, and the dosage volume was 10 mL/kg.
(§3) The crystalline arthritis model was prepared by intra-articular injection of urate crystals (40 mg/mL in the left ankle joint of each rat). Different doses of the test compounds were given separately by gavage administration. The day of administration was defined as day 1 of the experiment, and the compounds were administered once a day for 10 consecutive days (pre-administration of the drug for 7 days prior to modeling, modeling on day 8, and continuation of the drug for 3 days). The experiment ended on day 10. […]

[2] = system: IL-6; assay: Inflammatory factor experiment A: IL-6 in gouty arthritis rats; type: in vivo, SD rats; conditions: synovial tissue of knee joints; dose 0.6 mg/kg gavage; day 10
Procedure: as §1, §2, §3

[3] = system: gouty arthritis rats (sodium urate, right ankle and knee joint cavities); assay: Pharmacodynamics experiment B on gouty arthritis rats: ankle swelling rate; type: in vivo, SD rats; conditions: Rattus norvegicus, po, dose 0.6 mg/kg gavage, read-out: Swelling rate (ankle)
Summary of the method: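 Male SD rats dosed by gavage at 0.6 mg/kg (0.5% CMC-Na suspension) daily for 7 days before and 3 days after injection of 0.2 mL sodium urate solution into right ankle and knee joints. Ankle circumference measured before and 2-48 h after modeling; swelling rate = swelling degree/baseline ×100%, mean values.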

[4] = system: IL-1β; assay: Inflammatory factor experiment B: IL-1β in knee synovial tissue (ELISA); type: in vivo, SD rats; conditions: Rattus norvegicus, po; synovial tissue of knee joints, 48 h after modeling; dose 0.6 mg/kg; read-out: IL-1β percentage decrease %
[5] = system: ICR mice; assay: Acute toxicity test in mice by single administration; type: in vivo; conditions: 14 days, deaths/animals
Procedure: (§4) Compounds 34, 48, 55 and 58 were ground with 0.5% CMC-Na before administration, and prepared into a suspension of the corresponding concentration for gavage, with an administration volume of 0.1 mL/10 g.
(§5) ICR mice, SPF grade, weighing 18-20 g, 6-8 weeks old, were provided by Nantong University. The Laboratory Animal Production License was SCXK (Su) 2016-0010 and Laboratory Animal Use License was SYXK (Su) 2017-0035.
(§6) After overnight fasting, the drug was administered once by gavage in a volume of 0.1 mL/10 g. The normal group was given the corresponding volume of 0.5% CMC-Na solution according to body weight. The state of the animal was observed after administration, the animals were weighed daily and the number of deaths was recorded for 14 consecutive days.

[6] = as above; type: in vivo, ICR mice; conditions: both sexes, ICR, mouse, in vivo, po; acute toxicity, mice, single gavage; read-out: Maximum tolerated dose (MTD)
Procedure: as §4, §5, §6

[7] = system: IL-6; assay: Inflammatory factor experiment B: IL-6 in knee synovial tissue (ELISA); type: in vivo, SD rats; conditions: Rattus norvegicus, po; synovial tissue of knee joints, 48 h after modeling; dose 0.6 mg/kg; read-out: IL-6 percentage decrease %
[8] = system: gouty arthritis rats (sodium urate, right ankle and knee joint cavities); assay: Pharmacodynamics experiment B on gouty arthritis rats: gait score; type: in vivo, SD rats; conditions: for Gait Score: dose 0.6 mg/kg gavage, mean; for Gait versus model group, in words: compounds 0.6 mg/kg, colchicine 0.6 and 1.2 mg/kg
Summary of the method: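 Male SD rats (180-220 g) received test compounds by gavage as 0.5% CMC-Na suspensions, once daily for 7 days before modeling and for 3 days afterward. Gouty arthritis was induced by injecting 0.2 mL sodium urate solution into the right ankle and knee joint cavities. Gait was graded 0-3 using modified Coderre criteria, and group mean scores were compared with the model group by ANOVA-Dunnett T-test (P<0.05).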

[9] = In vivo pharmacokinetics in SD rats; conditions: Sprague-Dawley, rat; for F / AUC(0-inf) / MRT inf / Vd / clearance / Cmax / Tmax: in vivo; for half-life: plasma, read-out: t1/2 (converted)
Summary of the method: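 SD rats received compound intravenously (0.5 mg/mL solution) or by oral gavage (1 mg/mL, fasted overnight), both formulated in DMSO/Solutol HS15/saline. Plasma compound concentrations were measured by LC/MS/MS. Non-compartmental parameters were then calculated.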

[10] = system: TNF-α; assay: Inflammatory factor experiment B: TNF-α in knee synovial tissue (ELISA); type: in vivo, SD rats; conditions: Rattus norvegicus, po; synovial tissue of knee joints, 48 h after modeling; dose 0.6 mg/kg; read-out: TNF-α percentage decrease %
[11] = Intravenous injection - 1 mg/kg

COc1cc2c(c(OC)c1OC)-c1cc(Br)c(OC)c(=O)cc1[C@@H](NC(C)=O)CC2 [Compound 14, (S)—N-(11-bromo-1,2,3,10-tetramethoxy-9-oxo-5,6,7,9-tetrahydrobenzo[a]heptalen-7-yl)acetamide]
Decreased TNF-α percentage % [1]: 125.78% | Decreased IL-6 percentage % [2]: 119.58%

CNC(=O)c1ccc2c(cc1=O)[C@@H](NC(C)=O)CCc1cc(OC)c(OC)c(OC)c1-2 [Compound 48, (S)-7-acetamido-1,2,3-trimethoxy-N-methyl-9-oxo-5,6,7,9-tetrahydrobenzo[a]heptalene-10-carboxamide]
change in vivo at 0.6 mg/kg ([3]; 2 h): 9.42% | change in vivo at 0.6 mg/kg ([3]; 4 h): 15.5% | change in vivo at 0.6 mg/kg ([3]; 8 h): 21% | change in vivo at 0.6 mg/kg ([3]; 10 h): 21.5% | change in vivo at 0.6 mg/kg ([3]; 24 h): 22.4% | change in vivo at 0.6 mg/kg ([3]; 48 h): 13.6% | inhibition in vivo at 0.6 mg/kg [4]: 82.2% | Mortality rate ([5]; single gavage dose 50 mg/kg): 0/6 | Mortality rate ([5]; single gavage dose 100 mg/kg): 0/6 | Mortality rate ([5]; single gavage dose 400 mg/kg): 0/6 | Mortality rate ([5]; single gavage dose 600 mg/kg): 0/6 | MTD at 14 days [6]: > 600 mg/kg | inhibition in vivo at 0.6 mg/kg [7]: 110% | Gait Score ([8]; 2 h): 0 | Gait Score ([8]; 4 h): 0.1 | Gait Score ([8]; 8 h): 0.1** | Gait Score ([8]; 10 h): 0** | Gait Score ([8]; 24 h): 0* | Gait Score ([8]; 48 h): 0 | Gait versus model group, in words [8]: significant improvement in gait occurred at different time points | F ([9]; 10 mg/kg): 57.0% | AUC(0-inf) ([9]; iv, 1 mg/kg): 580 ng·h/mL | MRT inf ([9]; iv, 1 mg/kg): 0.641 h | Vd ([9]; iv, 1 mg/kg): 1.11 L/kg | clearance ([9]; iv, 1 mg/kg): 29.2 mL/min/kg | AUC(0-inf) ([9]; po, 10 mg/kg): 3300 ng·h/mL | Cmax ([9]; po, 10 mg/kg): 1930 ng/mL | MRT inf ([9]; po, 10 mg/kg): 1.83 h | Tmax ([9]; po, 10 mg/kg): 0.25 h | half-life ([9]; po, Gavage - 10 mg/kg): 1.61 h | half-life [9, 11]: 0.536 h | inhibition in vivo at 0.6 mg/kg [10]: 81.6%

CCNC(=O)c1ccc2c(cc1=O)[C@@H](NC(C)=O)CCc1cc(OC)c(OC)c(OC)c1-2 [Compound 55, (S)-7-acetamido-1,2,3-trimethoxy-N-ethyl-9-oxo-5,6,7,9-tetrahydrobenzo[a]heptalen-10-carboxamide]
inhibition in vivo at 0.6 mg/kg [4]: 133% | Mortality rate ([5]; single gavage dose 50 mg/kg): 0/6 | Mortality rate ([5]; single gavage dose 100 mg/kg): 0/6 | Mortality rate ([5]; single gavage dose 400 mg/kg): 0/6 | Mortality rate ([5]; single gavage dose 600 mg/kg): 0/6 | MTD at 14 days [6]: > 600 mg/kg | inhibition in vivo at 0.6 mg/kg [7]: 128% | F ([9]; 10 mg/kg): 115% | AUC(0-inf) ([9]; iv, 1 mg/kg): 543 ng·h/mL | MRT inf ([9]; iv, 1 mg/kg): 0.592 h | Vd ([9]; iv, 1 mg/kg): 1.1 L/kg | clearance ([9]; iv, 1 mg/kg): 31.2 mL/min/kg | AUC(0-inf) ([9]; po, 10 mg/kg): 6260 ng·h/mL | Cmax ([9]; po, 10 mg/kg): 2040 ng/mL | MRT inf ([9]; po, 10 mg/kg): 2.72 h | Tmax ([9]; po, 10 mg/kg): 0.333 h | half-life ([9]; po, Gavage - 10 mg/kg): 2.02 h | half-life [9, 11]: 0.6 h | inhibition in vivo at 0.6 mg/kg [10]: 86.4%

COc1cc2c(c(OC)c1OC)-c1ccc(C(=O)Nc3ccccc3)c(=O)cc1[C@@H](NC(C)=O)CC2 [Compound 58, (S)-7-acetamido-1,2,3-trimethoxy-N-phenyl-9-oxo-5,6,7,9-tetrahydrobenzo[a]heptalen-10-carboxamide]
change in vivo at 0.6 mg/kg ([3]; 2 h): 6.48% | change in vivo at 0.6 mg/kg ([3]; 4 h): 13.8% | change in vivo at 0.6 mg/kg ([3]; 8 h): 17.2% | change in vivo at 0.6 mg/kg ([3]; 10 h): 20.4% | change in vivo at 0.6 mg/kg ([3]; 24 h): 18.1% | change in vivo at 0.6 mg/kg ([3]; 48 h): 8.42% | inhibition in vivo at 0.6 mg/kg [4]: 87.5% | Mortality rate ([5]; single gavage dose 50 mg/kg): 0/6 | Mortality rate ([5]; single gavage dose 100 mg/kg): 0/6 | Mortality rate ([5]; single gavage dose 400 mg/kg): 0/6 | Mortality rate ([5]; single gavage dose 600 mg/kg): 0/6 | MTD at 14 days [6]: > 600 mg/kg | inhibition in vivo at 0.6 mg/kg [7]: 86.7% | Gait Score ([8]; 2 h): 0 | Gait Score ([8]; 4 h): 0* | Gait Score ([8]; 8 h): 0.3 | Gait Score ([8]; 10 h): 0.2** | Gait Score ([8]; 24 h): 0 | Gait Score ([8]; 48 h): 0 | Gait versus model group, in words [8]: significant improvement in gait occurred at different time points | F ([9]; 10 mg/kg): 109% | AUC(0-inf) ([9]; iv, 1 mg/kg): 1390 ng·h/mL | MRT inf ([9]; iv, 1 mg/kg): 2.04 h | Vd ([9]; iv, 1 mg/kg): 1.44 L/kg | clearance ([9]; iv, 1 mg/kg): 12.1 mL/min/kg | AUC(0-inf) ([9]; po, 10 mg/kg): 15100 ng·h/mL | Cmax ([9]; po, 10 mg/kg): 2040 ng/mL | MRT inf ([9]; po, 10 mg/kg): 4.58 h | Tmax ([9]; po, 10 mg/kg): 2.67 h | half-life ([9]; po, Gavage - 10 mg/kg): 2.22 h | half-life [9, 11]: 1.92 h | inhibition in vivo at 0.6 mg/kg [10]: 80.5%
